Test results reported in US11345699B2, “Apoptosis signal-regulating kinase 1 inhibitors and methods of use thereof” (Enanta Pharmaceuticals, Inc., priority 2018, dated 2022).

Target: ASK1 (Homo sapiens (Human), UniProt Q99683)
Experiment: HTRF KinEASE Assay (TR-FRET), inhibition of ASK1
Assay type: biochemical
Conditions: ASK1 kinase, 100 μM ATP, 1 μM STK3 peptide substrate, compound 0 to 10 μM
Method: Assay HTRF® KinEASE™ Assay
ASK1 was purchased from Thermofisher (Catalogue #PV4011), ATP was purchased from Sigma (Catalogue #A7699), HTRF® KinEASE™ Assay System was obtained from Cisbio (Bedford, Mass.). ½ Area plate was purchased from Perkin Elmer (Catalogue ##6005560). HTRF® KinEASE™-STK is a generic method for measuring serine/threonine kinase activities using a time-resolved fluorescence resonance energy transfer (TR-FRET) immunoassay. The IC50 value for each compound was determined in the presence of compound (various concentration from 0 to 10 μM) and a fixed amount of ATP and peptide substrates. The test compound, 1 μM STK3 peptide substrate, and […] of ASK1 kinase are incubated with kinase reaction buffer containing 50 mM HEPES Ph 7.5, 0.01% BRIJ-35, 10 mM MgCl2, and 1 mM EGTA for 30 minutes. 100 μM ATP is added to start kinase reaction and incubated for 3 hours. The STK3-antibody labeled with Eu^3+-Cryptate and 125 nM streptavidin-XL665 are mixed in a single addition with stop reagents provided by the Cisbio kit used to stop the kinase reaction. Fluorescence is detected using an Envision Multilabeled 2014 reader from PerkinElmer. The Fluorescence is measured at 615 nm (Cryptate) and 665 nm (XL665) and a ratio of 665 nm/615 nm is calculated for each well. The resulting TR-FRET is proportional to the phosphorylation level. Staurosporine was used as the positive control. IC50 was determined by Xlfit 5.3.
By using above method, the inhibition of ASK1 was evaluated for the compounds of Formula (I). Example numbers correspond to those in Table 5.

Chain of ASK1 (Q99683 whole entry): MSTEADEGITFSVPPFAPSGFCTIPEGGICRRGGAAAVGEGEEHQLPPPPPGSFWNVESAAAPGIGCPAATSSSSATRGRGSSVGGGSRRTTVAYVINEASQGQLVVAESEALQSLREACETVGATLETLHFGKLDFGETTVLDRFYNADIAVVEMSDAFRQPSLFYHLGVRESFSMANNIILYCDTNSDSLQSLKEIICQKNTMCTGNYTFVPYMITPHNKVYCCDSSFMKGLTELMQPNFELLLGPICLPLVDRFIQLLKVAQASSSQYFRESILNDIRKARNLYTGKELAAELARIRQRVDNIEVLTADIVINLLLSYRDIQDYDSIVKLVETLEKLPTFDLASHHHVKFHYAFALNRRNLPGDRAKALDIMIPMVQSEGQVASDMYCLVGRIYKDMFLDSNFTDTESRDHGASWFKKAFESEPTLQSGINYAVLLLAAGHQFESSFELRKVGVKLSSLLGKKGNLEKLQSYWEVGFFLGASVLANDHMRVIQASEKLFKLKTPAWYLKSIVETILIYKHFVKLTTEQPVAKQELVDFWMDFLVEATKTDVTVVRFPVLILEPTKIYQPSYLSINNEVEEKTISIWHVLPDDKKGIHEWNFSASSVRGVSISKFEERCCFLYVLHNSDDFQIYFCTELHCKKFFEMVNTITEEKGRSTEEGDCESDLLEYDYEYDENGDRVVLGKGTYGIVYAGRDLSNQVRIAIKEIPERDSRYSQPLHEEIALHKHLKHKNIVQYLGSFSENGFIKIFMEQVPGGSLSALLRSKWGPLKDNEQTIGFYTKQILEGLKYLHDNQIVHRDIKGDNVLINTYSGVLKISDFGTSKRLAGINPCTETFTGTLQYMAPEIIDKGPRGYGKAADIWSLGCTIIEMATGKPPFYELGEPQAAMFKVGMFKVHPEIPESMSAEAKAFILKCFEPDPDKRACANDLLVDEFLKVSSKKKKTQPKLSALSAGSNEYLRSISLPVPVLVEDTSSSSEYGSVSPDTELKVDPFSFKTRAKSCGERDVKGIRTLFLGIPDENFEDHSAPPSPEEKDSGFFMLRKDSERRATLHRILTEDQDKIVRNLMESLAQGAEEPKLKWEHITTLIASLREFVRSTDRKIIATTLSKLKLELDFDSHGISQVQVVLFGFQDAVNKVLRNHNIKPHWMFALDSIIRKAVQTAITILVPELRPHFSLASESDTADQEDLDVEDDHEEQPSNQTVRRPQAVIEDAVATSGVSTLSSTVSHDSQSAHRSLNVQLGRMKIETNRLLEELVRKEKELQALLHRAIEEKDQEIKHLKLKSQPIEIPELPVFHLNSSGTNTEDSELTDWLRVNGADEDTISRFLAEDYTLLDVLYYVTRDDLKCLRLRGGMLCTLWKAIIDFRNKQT

| SMILES | IC50 [nM] |
| --- | --- |
| C[C@H](CO)n1nnnc1-c1cccc(NC(=O)c2cc3c(cc2F)CCN(C2CC2)C3)n1 [Example 120] | 10 to 100 |
| C[C@H](CO)n1nnnc1-c1cccc(NC(=O)c2cc3c(cc2F)CCN(Cc2ccc(F)cc2)C3)n1 [Example 121] | 10 to 100 |
| C[C@H](CO)n1nnnc1-c1cccc(NC(=O)c2cc3c(cc2F)CCN(c2ccccn2)C3)n1 [Example 122] | 1.25 to 10 |
| C[C@H](CO)n1nnnc1-c1cccc(NC(=O)c2cc3c(cc2F)CCN(c2ncccn2)C3)n1 [Example 123] | 1.25 to 10 |
| COCCC(=O)N1CCc2cc(OC)c(C(=O)Nc3cccc(-c4nncn4C(C)C)n3)cc2C1 [Example 125] | < 1.25 |
| COc1cc2c(cc1C(=O)Nc1cccc(-c3nncn3C(C)C)n1)CN(C(=O)C(C)(C)CO)CC2 [Example 126, 2-(3-hydroxy-2,2-dimethylpropanoyl)-N-(6-(4-isopropyl-4H-1,2,4-triazol-3-yl)pyridin-2-yl)-6-methoxy-1,2,3,4-tetrahydroisoquinoline-7-carboxamide] | < 1.25 |
| COc1cc2c(cc1C(=O)Nc1cccc(-c3nncn3C(C)C)n1)CN(C(=O)C[C@H](C)O)CC2 [Example 127] | < 1.25 |
| COc1cc2c(cc1C(=O)Nc1cccc(-c3nncn3C(C)C)n1)CN(C(=O)C(C)(C)O)CC2 [Example 129] | < 1.25 |
| COc1cc2c(cc1C(=O)Nc1cccc(-c3nnnn3[C@H](C)CO)n1)CN(C(=O)OCC(C)(C)O)CC2 [Example 130, 2-hydroxy-2-methylpropyl (R)-7-((6-(1-(1-hydroxypropan-2-yl)-1H-tetrazol-5-yl)pyridin-2-yl)carbamoyl)-6-methoxy-3,4-dihydroisoquinoline-2(1H)-carboxylate] | < 1.25 |
| COc1cc2c(cc1C(=O)Nc1cccc(-c3nnnn3[C@H](C)CO)n1)CN(C(=O)N1CCOCC1)CC2 [Example 131] | < 1.25 |
| C[C@H](CO)n1nnnc1-c1cccc(NC(=O)c2cc3c(cc2F)CCN(C(=O)c2ccccn2)C3)n1 [Example 133] | 10 to 100 |
| C[C@H](CO)n1nnnc1-c1cccc(NC(=O)c2cc3c(cc2F)CCN(C(=O)N2CCC2)C3)n1 [Example 135] | 1.25 to 10 |
| C[C@H](CO)n1nnnc1-c1cccc(NC(=O)c2cc3c(cc2F)CCN(S(=O)(=O)c2ccc(F)cc2)C3)n1 [Example 137] | 10 to 100 |
| CCN1CCc2cc(F)c(C(=O)Nc3cccc(-c4nnnn4[C@H](C)CO)n3)cc2C1 [Example 138] | 100 to 1000 |
| COc1cc2c(cc1C(=O)Nc1cccc(-c3nnnn3[C@H](C)CO)n1)CN(C(=O)OC[C@@H](O)C(F)(F)F)CC2 [Example 141] | < 1.25 |

Other lines, results leading:

| IC50 [nM] | SMILES |
| --- | --- |
| 1.25 to 10 | CCNS(=O)(=O)N1CCc2cc(F)c(C(=O)Nc3cccc(-c4nnnn4[C@H](C)CO)n3)cc2C1 [Example 118] |
| 10 to 100 | C[C@H](CO)n1nnnc1-c1cccc(NC(=O)c2cc3c(cc2F)CCN(S(=O)(=O)C2CC2)C3)n1 [Example 119] |
| < 1.25 | COCCC(=O)N1CCc2cc(OC)c(C(=O)Nc3cccc(-c4nnnn4[C@H](C)CO)n3)cc2C1 [Example 124] |
| < 1.25 | COc1cc2c(cc1C(=O)Nc1cccc(-c3nncn3C(C)C)n1)CN(C(=O)[C@@H](O)CC(C)C)CC2 [Example 128] |
| < 1.25 | COc1cc2c(cc1C(=O)Nc1cccc(-c3nnnn3[C@H](C)CO)n1)CN(CC(=O)N1CCCC1)CC2 [Example 132] |
| 1.25 to 10 | C[C@H](CO)n1nnnc1-c1cccc(NC(=O)c2cc3c(cc2F)CCN(C(=O)NC2CC2)C3)n1 [Example 134] |
| 10 to 100 | C[C@H](CO)n1nnnc1-c1cccc(NC(=O)c2cc3c(cc2F)CCN(S(=O)(=O)Nc2ccc(F)cc2)C3)n1 [Example 136] |
| 1.25 to 10 | C[C@H](CO)n1nnnc1-c1cccc(NC(=O)c2cc3c(cn2)CCN(C(=O)N2CCOCC2)C3)n1 [Example 139] |
| 1.25 to 10 | C[C@H](CO)n1nnnc1-c1cccc(NC(=O)c2cc3c(cn2)CCN(C(=O)C(C)(C)O)C3)n1 [Example 140] |
| < 1.25 | COc1cc2c(cc1C(=O)Nc1cccc(-c3nnnn3[C@H](C)CO)n1)CN(C(=O)[C@@H]1CCOC1)CC2 [Example 142] |
